The source of these data is patent US5227488A, “Aza spiro decane and use thereof in treating CNS disorders” (Novo Nordisk A/S, priority 1989, dated 1993).

Where a name gives a salt, the structure may show the parent alone.

Test [1] has as its system 5-HT2 receptor subtype. The following applies: background; cited from earlier work.
Test [2] relates to 5-HT1 recognition sites. Conditions: background; Ann. Reports Med. Chem. 21 (1986), 42-43; cited from earlier work.
Test [3] addresses T1, 5-HT1B (Rattus norvegicus, UniProt P28564).
T1 construct: from tissue; host or cells: rat brain: frontal cortex, hippocampus
The test can be described thus: Receptor binding in vitro, 5-HT1B (3H-5-HT displacement, with 50 nM 8-OH-DPAT). On the procedure: (§1) Compounds of the general formula (I) were tested for binding to 5-HT receptors and compared with known ligands by the following procedure:
(§2) Rat brain tissue (as specified in the table hereinafter) was homogenized using a Polytron homogenizer. The final pellet was resuspended in 125 vol (tissue wet weight) of buffer.
(§3) In all assays incubation was carried out for 10 min at 37° C.
Labelling of the 5-HT1B receptor was complicated by the fact that the available ligand ^3 H-5-HT is nonselective.
(§4) Detailed conditions for the receptor binding assay in vitro are tabulated below.

Test [4] deals with Adenylatcyclase. The test is described as follows: Adenylatcyclase. Format: biochemical.
The target in test [5] is T2, 5-HT2 (Rattus norvegicus, UniProt P14842).
T2 construct: from tissue; host or cells: rat brain: frontal cortex, striatum
The test can be described thus: Receptor binding in vitro, 5-HT2 (3H-ketanserin displacement). The protocol: as §1, §2, §3, §4

Test [6] concerns the target T3, 5-HT1A (Rattus norvegicus, UniProt P19327).
T3 construct: from tissue; host or cells: rat brain: frontal cortex, hippocampus
T3 sequence (P19327 1-422): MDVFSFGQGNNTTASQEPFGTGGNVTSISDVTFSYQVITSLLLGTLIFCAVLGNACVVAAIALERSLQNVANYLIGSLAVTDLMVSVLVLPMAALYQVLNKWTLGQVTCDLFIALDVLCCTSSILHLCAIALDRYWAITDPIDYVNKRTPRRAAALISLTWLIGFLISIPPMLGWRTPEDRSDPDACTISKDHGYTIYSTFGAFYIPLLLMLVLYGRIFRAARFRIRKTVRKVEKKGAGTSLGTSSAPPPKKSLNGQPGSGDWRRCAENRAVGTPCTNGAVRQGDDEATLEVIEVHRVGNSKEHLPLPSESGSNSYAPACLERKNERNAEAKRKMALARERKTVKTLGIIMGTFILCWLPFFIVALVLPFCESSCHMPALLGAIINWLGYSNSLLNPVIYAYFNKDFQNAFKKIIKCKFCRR
The test can be described thus: Receptor binding in vitro, 5-HT1A (3H-8OH-DPAT displacement). Conditions: ligand 3H-8OH-DPAT 2 nM; rat frontal cortex, hippocampus. On the procedure: as §1, §2, §3, §4

Test [7] deals with 5-HT1A receptors. Conditions: background; cited from earlier work.

T2 sequence (P14842 whole entry): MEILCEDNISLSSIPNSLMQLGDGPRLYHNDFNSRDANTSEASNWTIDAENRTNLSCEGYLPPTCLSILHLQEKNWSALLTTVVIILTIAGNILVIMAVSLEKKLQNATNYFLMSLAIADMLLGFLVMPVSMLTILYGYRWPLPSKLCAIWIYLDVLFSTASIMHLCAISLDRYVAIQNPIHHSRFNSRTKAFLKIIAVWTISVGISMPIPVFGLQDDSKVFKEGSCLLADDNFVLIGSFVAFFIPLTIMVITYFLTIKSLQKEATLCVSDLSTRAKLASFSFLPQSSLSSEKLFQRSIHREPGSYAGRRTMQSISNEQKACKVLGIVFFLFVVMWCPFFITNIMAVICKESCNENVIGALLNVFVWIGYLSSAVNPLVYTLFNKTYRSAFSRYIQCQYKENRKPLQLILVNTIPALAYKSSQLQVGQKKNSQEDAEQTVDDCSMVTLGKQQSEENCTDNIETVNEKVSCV
T1 sequence (P28564 whole entry): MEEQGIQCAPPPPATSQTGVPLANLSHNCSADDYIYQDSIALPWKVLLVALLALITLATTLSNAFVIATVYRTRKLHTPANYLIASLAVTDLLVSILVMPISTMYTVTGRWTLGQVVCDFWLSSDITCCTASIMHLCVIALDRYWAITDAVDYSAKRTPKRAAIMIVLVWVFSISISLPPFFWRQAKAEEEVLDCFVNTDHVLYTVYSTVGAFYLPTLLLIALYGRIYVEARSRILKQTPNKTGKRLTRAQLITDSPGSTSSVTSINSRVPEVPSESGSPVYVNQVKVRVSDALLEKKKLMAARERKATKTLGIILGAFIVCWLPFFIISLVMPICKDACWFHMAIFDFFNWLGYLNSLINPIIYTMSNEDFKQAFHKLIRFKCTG

Turning to `O=C(c1ccc(F)cc1)C1CCN(CCn2c(=O)[nH]c3ccccc3c2=O)CC1` [ketanserin], in test [1], the “affinity for the 5-HT2 receptor subtype (in words)” value is given as “high affinity”.
Turning to `COc1ccc2[nH]cc(C3=CCNCC3)c2c1` [RU 24969], in test [2], the “affinity for 5-HT1 recognition sites (in words)” value was “high affinity”; the “discrimination between the 5-HT1A and 5-HT1B receptor subtypes (in words)” value is on record as “only limited capacity to discriminate”.
In the case of `O=C1c2ccccc2S(=O)(=O)N1CCCCNCCSc1c[nH]c2ccccc12` [Example 6, 1-(4-(o-Sulfobenzimido)butyl-1-amino)-2-(3-indolylthio)ethane, oxalate], the IC50 (usually the concentration that inhibits the measured activity by half) was greater than 1000 nM in test [3], 20 nM in test [4], greater than 1000 nM in test [5] and 34 nM in test [6].
As to `COc1ccc2[nH]cc(SCCNCCCCN3C(=O)CC4(CCCC4)CC3=O)c2c1` [Example 8, 1-(4-(7,9-Dioxo-8-azaspiro[4,5]decan-8-yl)butyl-1-amino)-2-(5-methoxy-3-indolylthio)-ethane, oxalate], the IC50 in test [3] was greater than 1000 nM; in test [4], 30 nM; in test [5], greater than 1000 nM; in test [6], 33 nM.
Turning to `COc1ccc2[nH]cc(SCCNCCCCN3C(=O)c4ccccc4C3=O)c2c1` [Example 9, 1-(4-Phthalimidobutyl-1-amino)-2-(5-methoxy-3-indolylthio)-ethane, oxalate], the IC50 is 156 nM in test [3], 140 nM in test [4], greater than 1000 nM in test [5] and 20 nM in test [6].
For the molecule `CC1(C)CC(=O)N(CCCCN2CCN(c3ncccn3)CC2)C(=O)C1` [gepirone, reference compound], the figures for the IC50 in test [4] and in test [5] were 1000 nM and greater than 1000 nM, respectively.
`O=C1CC2(CCCC2)CC(=O)N1CCCCN1CCN(c2ncccn2)CC1` [buspirone, reference compound] came in with an IC50 in test [4] of 125 nM.
Consider `O=C1c2ccccc2S(=O)(=O)N1CCCCN1CCN(c2ncccn2)CC1` [ipsapirone, reference compound], for which the IC50 in test [3] was greater than 1000 nM; in test [4], 850 nM; in test [5], greater than 1000 nM; in test [6], 25 nM.
As to `COc1ccc2[nH]cc(SCCNCCCCN3C(=O)C4C5C=CC(C6CC56)C4C3=O)c2c1` (stereo not drawn) [Example 10], the IC50 is greater than 1000 nM in test [3], 23 nM in test [4], greater than 1000 nM in test [5] and 8 nM in test [6].
For `COc1ccc2[nH]cc(OCCNCCCCN3C(=O)C4C5C=CC(C6C=CC65)C4C3=O)c2c1` (stereo not drawn) [Example 24, 1-(4-(1,3-Dioxo-4,7-etheno-1,3,3a,4,4a,6a,7,7a-octahydro-2H-cyclobut[f]isoindol-2-yl)butyl-1-amino)-2-(5-methoxy-3-indolyloxy)-ethane, oxalate], the half-maximal inhibitory concentration (IC50) in test [3] is greater than 1000 nM; in test [4], 4 nM; in test [5], greater than 1000 nM; in test [6], 6.9 nM.
As to `COc1ccc2[nH]cc(OCCNCCCCN3C(=O)CC4(CCCC4)CC3=O)c2c1` [Example 23, 1-(4-(7,9-Dioxo-8-azaspiro[4,5]decan-8-yl)butyl-1-amino)-2-(5-methoxy-3-indolyloxy)-ethane, oxalate], the IC50 in test [3] is greater than 1000 nM; in test [4] it was 1.8 nM; in test [5], greater than 1000 nM; in test [6], 0.6 nM.
In the case of `O=C1CC2(CCCC2)CC(=O)N1CCCCNCCSc1c[nH]c2ccccc12` [Example 3, 1-(4-(7,9-Dioxo-8-azaspiro[4,5]decan-8-yl)butyl-1-amino)2-(3-indolylthio)-ethane, oxalate], the IC50 was found to be 233 nM in test [3], 10 nM in test [4], 613 nM in test [5] and 40 nM in test [6].
For `CCCN(CCC)C1CCc2cccc(O)c2C1` (stereo not drawn) [Example 8-OH-DPAT, 8-hydroxy-2-(di-n-propylamino)tetralin, reference compound], the “affinity for 5-HT1A receptors (in words)” value in test [7] was “binds with high affinity”. Further, the IC50 in test [4] was 80 nM; in test [5], greater than 1000 nM.
Regarding `COc1ccc2[nH]cc(SCCNCCCCN3C(=O)C4CC=CCC4C3=O)c2c1` (stereo not drawn) [Example 12, 1-(4-(Cis-4-cyclohexen-1,2-dicarboximido)butyl-1-amino)-2-(5-methoxy-3-indolylthio)-ethane, oxalate], the IC50 in test [3] is greater than 1000 nM; in test [4], 240 nM; in test [5], greater than 1000 nM; in test [6], 17 nM.
